Reference: patent US8022061B2, “N-aryl pyrazole compounds, compositions, and methods for their use” (Amgen Inc., priority 2006, dated 2011)

These molecules were tested on ob/ob mice (assay: Increase of circulating insulin concentrations in treated ob/ob mice). Details: male ob/ob mice, dose 3 mg/kg p.o., 10 minutes after dosing, relative to control group.
Type: in vivo
Description: The results presented below exemplify that administration of the compounds as provided herein to an art-recognized animal model of human diabetes can lead to increased circulating insulin concentrations in the animal model.
Male ob/ob mice were weighed and bled from tail vein, and blood glucose levels were determined with a glucometer. Animals were placed into control and treatment groups having similar averages of glucose levels and body weights. In the morning of the following day, animals were dosed with vehicle (control group) or test article (5 ml/kg, p.o.). Blood samples were collected just before and 10 minutes after dosing, and the samples were assayed for insulin and glucose concentrations.
Table 1 provides exemplary data showing the increase of circulating insulin concentrations (expressed as ng/ml) in treated mice relative to control group at 10 minutes after dosing the treated mice. Concentrations of the exemplary compound tested in the mice are provided in the righthand column.

For CCCCc1c(C(=O)NC2CCCn3cncc32)cnn1-c1ncc(C)c(-c2cccs2)n1 (centres unmarked) [5-Butyl-1-[5-methyl-4-(2-thienyl)pyrimidin-2-yl]-N-(5,6,7,8-tetrahydroimidazo[1,5-a]pyridin-8-yl)-1H-pyrazole-4-carboxamide], the “Increase in Insulin” value was 1.4 ng/mL.

Same assay, conditions: male ob/ob mice, dose 10 mg/kg p.o., 10 minutes after dosing, relative to control group

Point of comparison: CCCCc1c(C(=O)NCc2c(C)ncn2CC(=O)O)cnn1-c1ncc(Br)c(NC2CCC2)n1 [(5-{[({1-[5-Bromo-4-(cyclobutylamino)pyrimidin-2-yl]-5-butyl-1H-pyrazol-4-yl}carbonyl)amino]methyl}-4-methyl-1H-imidazol-1-yl)acetic acid], “Increase in Insulin” value 1.7 ng/mL. Against it:
- CCCCc1c(C(=O)NCc2cnc3ccccn23)cnn1-c1ncc(Br)c(NC2CCC2)n1 [1-[5-Bromo-4-(cyclobutylamino)pyrimidin-2-yl]-5-butyl-N-(imidazo[1,2-a]pyridin-3-ylmethyl)-1H-pyrazole-4-carboxamide] — 4.2-fold higher, 7.2 ng/mL
- CCCc1c(C(=O)NC2CCCc3cnccc32)cnn1-c1ncc(C)c(-c2cccs2)n1 (centres unmarked) [1-[5-Methyl-4-(2-thienyl)pyrimidin-2-yl]-5-propyl-N-(5,6,7,8-tetrahydroisoquinolin-5-yl)-1H-pyrazole-4-carboxamide] — 5.2-fold higher, 8.8 ng/mL
- CCCCc1c(C(=O)NCCn2cncc2C(=O)O)cnn1-c1ncc(C)c(-c2cccs2)n1 [1-{2-[({5-Butyl-1-[5-methyl-4-(2-thienyl)pyrimidin-2-yl]-1H-pyrazol-4-yl}carbonyl)amino]ethyl}-1H-imidazole-5-carboxylic acid] — 3.6-fold higher, 6.1 ng/mL
- CCOCc1c(C(=O)NC(C)c2ccncc2)cnn1-c1ncc(C)c(-c2cccs2)n1 (centres unmarked) [5-(Ethoxymethyl)-1-[5-methyl-4-(2-thienyl)pyrimidin-2-yl]-N-(1-pyridin-4-ylethyl)-1H-pyrazole-4-carboxamide] — 3.9-fold higher, 6.7 ng/mL
- CCCCc1c(C(=O)NC(CC)c2ccncc2)cnn1-c1ncc(C)c(-c2cccs2)n1 (centres unmarked) [5-Butyl-1-[5-methyl-4-(2-thienyl)pyrimidin-2-yl]-N-(1-pyridin-4-ylpropyl)-1H-pyrazole-4-carboxamide] — 1.8-fold higher, 3.1 ng/mL
- CCCCc1c(C(=O)Nc2cccc3ncn(C)c23)cnn1-c1ncc(C)c(-c2cccs2)n1 [5-Butyl-N-(1-methyl-1H-benzo[d]imidazol-7-yl)-1-(5-methyl-4-(thiophen-2-yl)pyrimidin-2-yl)-1H-pyrazole-4-carboxamide] — 2.5-fold higher, 4.3 ng/mL
- CCCCc1c(C(=O)NC(CO)c2ccncc2)cnn1-c1ncc(C)c(-c2cccs2)n1 (centres unmarked) [5-Butyl-N-(2-hydroxy-1-pyridin-4-ylethyl)-1-[5-methyl-4-(2-thienyl)pyrimidin-2-yl]-1H-pyrazole-4-carboxamide] — 2.5-fold higher, 4.3 ng/mL
- CCCCc1c(C(=O)NC2CCn3cncc32)cnn1-c1ncc(C)c(-c2cccs2)n1 (centres unmarked) [5-Butyl-N-(6,7-dihydro-5H-pyrrolo[1,2-c]imidazol-7-yl)-1-[5-methyl-4-(2-thienyl)pyrimidin-2-yl]-1H-pyrazole-4-carboxamide] — within 1.5-fold, 2.2 ng/mL
- CCCCc1c(C(=O)NCc2cnc3ccccn23)cnn1-c1ncc(C)c(-c2cccs2)n1 [5-Butyl-N-(imidazo[1,2-a]pyridin-3-ylmethyl)-1-[5-methyl-4-(2-thienyl)pyrimidin-2-yl]-1H-pyrazole-4-carboxamide] — 5-fold higher, 8.5 ng/mL
- CCCCc1c(C(=O)NCc2c(C)ncn2CC(=O)N(C)C)cnn1-c1ncc(C)c(-c2cccs2)n1 [5-Butyl-N-({1-[2-(dimethylamino)-2-oxoethyl]-4-methyl-1H-imidazol-5-yl}methyl)-1-[5-methyl-4-(2-thienyl)pyrimidin-2-yl]-1H-pyrazole-4-carboxamide] — 2.8-fold higher, 4.7 ng/mL
- CCCCc1c(C(=O)NCc2c(C)ncn2CC(=O)NC)cnn1-c1ncc(C)c(-c2cccs2)n1 [5-Butyl-N-({4-methyl-1-[2-(methylamino)-2-oxoethyl]-1H-imidazol-5-yl}methyl)-1-[5-methyl-4-(2-thienyl)pyrimidin-2-yl]-1H-pyrazole-4-carboxamide] — 5.3-fold higher, 9 ng/mL
- CCCCc1c(C(=O)NC(C)c2cncn2C)cnn1-c1ncc(C)c(-c2cccs2)n1 (centres unmarked) [5-Butyl-N-[1-(1-methyl-1H-imidazol-5-yl)ethyl]-1-[5-methyl-4-(2-thienyl)pyrimidin-2-yl]-1H-pyrazole-4-carboxamide] — 3.8-fold higher, 6.4 ng/mL
- CCCCc1c(C(=O)NCCn2ccnc2)cnn1-c1ncc(C)c(-c2cccs2)n1 [5-Butyl-N-[2-(1H-imidazol-1-yl)ethyl]-1-[5-methyl-4-(2-thienyl)pyrimidin-2-yl]-1H-pyrazole-4-carboxamide] — 1.7-fold higher, 2.9 ng/mL
- CCCCc1c(C(=O)NC(CO)c2cncn2C)cnn1-c1ncc(C)c(-c2cccs2)n1 (centres unmarked) [5-Butyl-N-[2-hydroxy-1-(1-methyl-1H-imidazol-5-yl)ethyl]-1-[5-methyl-4-(2-thienyl)pyrimidin-2-yl]-1H-pyrazole-4-carboxamide] — 3.1-fold higher, 5.2 ng/mL
- CCCCc1c(C(=O)NCc2cncn2CC(=O)O)cnn1-c1ncc(C)c(-c2cccs2)n1 [(5-{[({5-Butyl-1-[5-methyl-4-(2-thienyl)pyrimidin-2-yl]-1H-pyrazol-4-yl}carbonyl)amino]methyl}-1H-imidazol-1-yl)acetic acid] — 2.2-fold higher, 3.8 ng/mL
- CCCCc1c(C(=O)NCCn2cncc2C(=O)OC)cnn1-c1ncc(C)c(-c2cccs2)n1 [Methyl 1-{2-[({5-butyl-1-[5-methyl-4-(2-thienyl)pyrimidin-2-yl]-1H-pyrazol-4-yl}carbonyl)amino]ethyl}-1H-imidazole-5-carboxylate] — 3.9-fold higher, 6.6 ng/mL
- CCCCc1c(C(=O)NCc2cncn2CC(=O)OC)cnn1-c1ncc(C)c(-c2cccs2)n1 [Methyl (5-{[({5-butyl-1-[5-methyl-4-(2-thienyl)pyrimidin-2-yl]-1H-pyrazol-4-yl}carbonyl)amino]methyl}-1H-imidazol-1-yl)acetate] — 2.5-fold higher, 4.3 ng/mL
- CCCCc1c(C(=O)Nc2cccc3nc[nH]c23)cnn1-c1ncc(C)c(-c2cccs2)n1 [N-1H-Benzimidazol-7-yl-5-butyl-1-[5-methyl-4-(2-thienyl)pyrimidin-2-yl]-1H-pyrazole-4-carboxamide] — 1.9-fold lower, 0.9 ng/mL
- COCc1c(C(=O)NCc2cnc3ccccn23)cnn1-c1ncc(C)c(-c2cccs2)n1 [N-(Imidazo[1,2-a]pyridin-3-ylmethyl)-5-(methoxymethyl)-1-[5-methyl-4-(2-thienyl)pyrimidin-2-yl]-1H-pyrazole-4-carboxamide] — 2.6-fold higher, 4.4 ng/mL
- CCCCc1c(C(=O)N[C@@H](Cc2c[nH]cn2)C(=O)O)cnn1-c1ncc(C)c(-c2cccs2)n1 [N-({5-Butyl-1-[5-methyl-4-(2-thienyl)pyrimidin-2-yl]-1H-pyrazol-4-yl}carbonyl)-L-histidine] — 2.6-fold higher, 4.5 ng/mL
- CCCc1c(C(=O)NCCc2cncn2C)cnn1-c1ncc(C)c(-c2cccs2)n1 [N-[2-(1-Methyl-1H-imidazol-5-yl)ethyl]-1-[5-methyl-4-(2-thienyl)pyrimidin-2-yl]-5-propyl-1H-pyrazole-4-carboxamide] — 5.6-fold higher, 9.5 ng/mL
- CCCc1c(C(=O)NC(CO)c2cncn2C)cnn1-c1ncc(C)c(-c2cccs2)n1 (centres unmarked) [N-[2-Hydroxy-1-(1-methyl-1H-imidazol-5-yl)ethyl]-1-[5-methyl-4-(2-thienyl)pyrimidin-2-yl]-5-propyl-1H-pyrazole-4-carboxamide] — 1.8-fold higher, 3.1 ng/mL
- CCCCc1c(C(=O)NCc2c(C)ncn2CC(N)=O)cnn1-c1ncc(C)c(-c2cccs2)n1 [N-{[1-(2-Amino-2-oxoethyl)-4-methyl-1H-imidazol-5-yl]methyl}-5-butyl-1-[5-methyl-4-(2-thienyl)pyrimidin-2-yl]-1H-pyrazole-4-carboxamide] — 2.4-fold higher, 4 ng/mL

Same assay, conditions: male ob/ob mice, dose 30 mg/kg p.o., 10 minutes after dosing, relative to control group

Point of comparison: CCCCc1c(C(=O)NC(C)(C)c2ccncc2)cnn1-c1ncc(C)c(-c2cccs2)n1 [5-Butyl-N-(1-methyl-1-pyridin-4-ylethyl)-1-[5-methyl-4-(2-thienyl)pyrimidin-2-yl]-1H-pyrazole-4-carboxamide], “Increase in Insulin” value 4.6 ng/mL. Against it:
- CCCCc1c(C(=O)NCc2ccncc2)cnn1-c1ncc(C)c(-c2cccs2)n1 [5-Butyl-1-[5-methyl-4-(2-thienyl)pyrimidin-2-yl]-N-(pyridin-4-ylmethyl)-1H-pyrazole-4-carboxamide] — within 1.5-fold, 4.1 ng/mL
- CCCc1c(C(=O)NCc2cncn2C)cnn1-c1ncc(C)c(-c2cccs2)n1 [N-[(1-Methyl-1H-imidazol-5-yl)methyl]-1-[5-methyl-4-(2-thienyl)pyrimidin-2-yl]-5-propyl-1H-pyrazole-4-carboxamide] — 6.2-fold higher, 28.5 ng/mL

These molecules were tested on C57B6 mice (assay: Glucose lowering effect after oral glucose challenge in C57B6 mice). Details: male C57B6 mice, p.o. 30 minutes before oral glucose 3 g/kg; blood glucose before, 20 and 50 minutes after challenge; relative to control group.
Type: in vivo
Description: The following example describes the glucose lowering effect of compounds observed in vivo.
Male C57B6 mice were placed into control and treatment groups having similar averages of body weights. Then, animals were dosed with vehicle (control group) or test article (5 ml/kg, p.o.). Thirty minutes after dosing, glucose (3 g/kg) was orally administered in each animal. Blood samples were collected just before, 20 minutes and 50 minutes after glucose challenge and glucose concentrations in the samples was assessed. The values in Table 2 represent the observed % AUC reduction of blood glucose in the treated animals relative to the control group.

With CCOCc1c(C(=O)NCc2c(CO)ncn2C)cnn1-c1ncc(C)c(N2CCc3ccccc3C2)n1 [1-[4-(3,4-Dihydroisoquinolin-2(1H)-yl)-5-methylpyrimidin-2-yl]-5-(ethoxymethyl)-N-{[4-(hydroxymethyl)-1-methyl-1H-imidazol-5-yl]methyl}-1H-pyrazole-4-carboxamide] the “% AUC reduction in glucose levels” value was 63%.
